We go through 19 molecules from ChEMBL document CHEMBL3352581, “Structure-activity relationships of non-opioid [des-Arg(7)]-dynorphin A analogues for bradykinin receptors” (Bioorg Med Chem Lett, 2014).

Where a SMILES comes first, the peptide text is derived from it. [ ]: non-standard residue; d: D form. Nle = CCCC[C@H](N)C(=O)O

A short description of data set [1]: Displacement of [3H]DALKD from bradykinin receptor in rat brain membranes by competition assay at pH 7.4. It counts as cell membranes, Membrane.
Data set [2] is described as follows: Retention time of the compound by HPLC method. The class given is physicochemical.
The nature of data set [3]: Displacement of [3H]DALKD from bradykinin receptor in rat brain membranes by competition assay. The class given is cell membranes, Membrane.
The nature of data set [4]: Displacement of [3H]DALKD from bradykinin receptor in rat brain membranes by competition assay at pH 6.8. It counts as cell membranes, Membrane.

In data set [1], `CC[C@H](C)[C@H](NC(=O)[C@H](CCCNC(=N)N)NC(=O)[C@H](CC(C)C)NC(=O)[C@@H](N)Cc1ccccc1)C(=O)N[C@@H](CCCNC(=N)N)C(=O)N1CCC[C@H]1C(=O)N[C@@H](CCCCN)C(=O)O` gave an IC50 of 190 nM.

`CCCC[C@H](NC(=O)[C@@H](N)Cc1ccccc1)C(=O)N[C@@H](CCCNC(=N)N)C(=O)N[C@H](C(=O)N[C@@H](CCCNC(=N)N)C(=O)N1CCC[C@H]1C(=O)N[C@@H](CCCCN)C(=O)O)[C@@H](C)CC`: the Retention_time in data set [2] came to 10.5 min.

Regarding `CCCC[C@H](NC(=O)[C@H](CCCNC(=N)N)NC(=O)[C@H](CC(C)C)NC(=O)[C@@H](N)Cc1ccccc1)C(=O)N[C@@H](CCCNC(=N)N)C(=O)N1CCC[C@H]1C(=O)N[C@@H](CCCCN)C(=O)O` (H-FLR[Nle]RPK-OH), in data set [2], the Retention_time is 11.4 min. Besides, in data set [3], the IC50 came to 91 nM and the negative-log IC50 (pIC50) is recorded as 7.04.

For `CCCC[C@H](NC(=O)[C@H](CCCNC(=N)N)NC(=O)[C@H](CCCC)NC(=O)[C@@H](N)Cc1ccccc1)C(=O)N[C@@H](CCCNC(=N)N)C(=O)N1CCC[C@H]1C(=O)N[C@@H](CCCNC(=N)N)C(=O)O` (H-F[Nle]R[Nle]RPR-OH), in data set [3], the IC50 amounted to 87 nM and the pIC50 is listed as 7.06.

On to `CC[C@H](C)[C@H](NC(=O)[C@H](CCCNC(=N)N)NC(=O)[C@@H](N)CC(C)C)C(=O)N[C@@H](CCCNC(=N)N)C(=O)O` (H-LRIR-OH), for which the negative logarithm of the IC50 (pIC50) in data set [4] came out at 5.66; in data set [1] it was 5.03. The same molecule gave a Retention_time in data set [2] of 7 min.

In the case of `CCCC[C@H](NC(=O)[C@H](CCCCN)NC(=O)[C@@H]1CCCN1C(=O)[C@H](CCCCN)NC(=O)[C@H](CCCC)NC(=O)[C@H](CCCCN)NC(=O)[C@@H](N)CCCC)C(=O)N[C@@H](CCCCN)C(=O)O` (H-[Nle]K[Nle]KPK[Nle]K-OH), in data set [3], the IC50 was found to be 91 nM and the pIC50 turned out to be 7.04.

Molecule H-FLARIRPK-OH displayed a Retention_time in data set [2] of 11 min. In data set [3], this molecule gave an IC50 of 260 nM and a negative logarithm of the IC50 (pIC50) of 6.58.

In data set [2], H-FLRAIRP-OH registered a Retention_time of 10.3 min. In data set [3], this molecule yielded an IC50 of 740 nM and a pIC50 of 6.13.

On to H-FLRIR-OH, for which the pIC50 in data set [4] was found to be 6.12; in data set [1], 5.67. The molecule further showed a Retention_time in data set [2] of 9.6 min.

With H-FLRIRPKLK-OH, the pIC50 amounted to 7.2 in data set [4] and 6.95 in data set [1]. This molecule displayed a Retention_time in data set [2] of 9.7 min.

Turning to H-FLRIRRPK-OH, in data set [3], the concentration for half-maximal inhibition (IC50) was 74 nM and the pIC50 was 7.13.

For H-GFLRIR-OH, the pIC50 in data set [4] is reported as 6.56; in data set [1] it was 6.21. This molecule also came in with a Retention_time in data set [2] of 8.2 min.

For the molecule H-GFLRIRPK-OH, the pIC50 in data set [1] is given as 6.88. The molecule further had a Retention_time in data set [2] of 9.5 min.

As to H-GFLRIRPKLK-OH, the negative logarithm of the IC50 (pIC50) in data set [4] was 7.58; in data set [1] it was 7.39. Further, the Retention_time in data set [2] came to 10.4 min.

Take H-GGFLRIRPKLK-OH: the pIC50 in data set [4] amounted to 7.39. Besides, the Retention_time in data set [2] was determined as 10.4 min.

H-LARIRPKLK-OH displayed a Retention_time in data set [2] of 9.2 min. For the same molecule, the negative logarithm of the IC50 (pIC50) in data set [3] is 6.99.

Consider H-LRAIRPKLK-OH, for which, in data set [2], the Retention_time was found to be 9.2 min. In addition, the negative-log IC50 (pIC50) in data set [3] stood at 6.91.

H-LRIRPK-OH: the negative logarithm of the IC50 (pIC50) in data set [4] came out at 6.71; in data set [1] it was 6.74. Also, in data set [2], the Retention_time is 6.3 min.

With H-LRIRPKLK-OH, in data set [4], the half-maximal inhibitory concentration (IC50) was 30 nM and the negative-log IC50 (pIC50) is reported as 7.52. In data set [1], this molecule gave a half-maximal inhibitory concentration (IC50) of 68 nM and a negative-log IC50 (pIC50) of 7.17.
